Data on 8 molecules can be found in patent publication US10988444B2, “Antimicrobial compounds” (NEWSOUTH INNOVATIONS PTY LIMITED, priority 2016, dated 2021).

pIC50: −log10 of the molar value. Converted amounts (≈) assume the structure as drawn. “And” between values parts separate entries of the source, which are not always exact repeats. Identical values can stand only once. Like-named read-outs stand apart in the source and are kept apart here.

The subject of data set [1] is MRC-5 normal human lung fibroblasts. The data set is described as follows: Cytotoxicity assay, Alamar blue, Example 2. As to conditions: for pIC50: Homo sapiens, MRC5, MRC-5, concentration which killed half of the cells. The format is cell-based. The method, then: The in vitro toxicity of the compounds (24a, 38b, 42d, 43d) was determined against MRC-5 normal human lung fibroblasts using the Alamar blue assay (see O'Brien, J.; Wilson, I.; Orton, T.; Pognan, F. Eur. J. Biochem. 2000, 267 (17), 5421-5426). A dose-response curve for each compound was generated to determine the IC50 values (concentration of compound which killed half of the cells) and the IC50 values were then used to determine the therapeutic window (IC50 value divided by MIC value) and specificity of the compounds (Table 3).
(Resazurin is reduced to fluorescent resorufin, in cell work by metabolically active cells.)

The nature of data set [2]: Membrane conduction, tBLMs containing 30% POPG, Example 2. The settings on record: negatively charged lipid, 50 μM, preliminary study. From the text:
Tethered bilayer lipid membranes (tBLMs) associated with alternating current electrical impedance spectroscopy techniques were employed to determine whether the compounds (24a, 38b, 42d, 43d) are lytic to cell membranes. Sparsely tethered tBLMs containing 30% palmitoyl-oleoyl-phosphati-dylglycerol (POPG) were created using the solvent-exchange technique described by Cranfield et al. in 2015 (see Cranfield, C. G.; Bettler, T.; Cornell, B. Langmuir 2015, 31 (1), 292-298). The tBLM conduction responses of compounds (24a, 38b, 42d, 43d) were compared to that of LL-37, a cathelicidin AMP that is known to permeabilise membranes.

A further data set relates to S. aureus (SA38). The data set is described as follows: Minimal inhibitory concentration (MIC) assay, Example 2. The data set is classed as cell-based. As to conditions: Staphylococcus aureus, TSB, 37° C., 24 h. The method, then: A single colony of bacteria was cultured overnight in TSB at 37° C. The resulting bacterial culture was collected by centrifugation and re-suspended in TSB twice. The optical density (OD) of the resulting culture was adjusted to OD600=0.1 in TSB (equivalent to 10^8 colony forming unit (CFU)/mL bacteria), and was further diluted to 10^5 CFU/mL in TSB. 100 μL of the bacterial solution was then added to wells of a 96-well plate containing 100 μL serially diluted compound, with final concentration ranging from 8-250 μM. The plates were then incubated at 37° C. for 24 h and the data was recorded by measuring the OD value at 600 nm using a Wallac Victor (Perkin-Elmer) microplate reader. […] Each experiment was performed in triplicate and was repeated in two independent experiments. The results of the MIC assay are given below in Table 2.

For data set [3], the system named is E. coli. The data set is described as follows: Biofilm disruption assay, established biofilms, crystal violet staining. The data set is classed as cell-based. As to conditions: 250 μM, 24 h treatment. The procedure: (§1) Bacterial cultures were grown in TSB media for overnight at 37° C. with shaking at 150 r.p.m. Cultures were diluted (1:20) in YPD medium and 200 μl aliquots were dispensed to flat bottom 96-well plate wells (Sarstedt Australia). Cultures were supplemented with varying concentrations of synthetic compounds dissolved in water. For pre-established biofilm assay, cultures were grown in 96-well plate wells overnight prior to supplementation with synthetic compounds. Control cultures were supplemented with an equal amount of DMSO. Plates were sealed with self-adhesive microplate sealers (TopSeal-A, PerkinElmer) to allow air diffusion and to prevent condensation. Cultures were incubated overnight at 37° C. with shaking at 150 r.p.m. Biofilms adhered on polystyrene substratum were quantified by crystal violet staining as described previously (see Wiegand, I.; Hilpert, K.; Hancock, R. E. W. Nat. Protocols 2008, 3 (2), 163-175). All cultures were prepared in triplicates. Error bars represent the standard error of three independent experiments (n=3).
(§2) The biofilm disruption activities of the compounds were investigated using crystal violet staining according to a previously published protocol (G. A. O'Toole, J Vis Exp, 2011, (47), pii: 2437, DOI: 10.3791/2437, 2437). The ability of compounds (34-38, 51-56, 61, 62, 65 and 66) to disrupt the established biofilms of the Gram-positive bacteria S. aureus and the Gram-negative bacteria Pseudomonas aeruginosa, Serratia marcescens and E. coli, was determined at a concentration of 250 μM. In this assay, bacterial cultures were grown on a polystyrene substratum overnight prior to treatment with the compounds. In addition, the ability of these compounds to inhibit the formation of biofilms of P. aeruginosa and S. marcescens was also investigated at 250 μM, whereby the bacterial cultures were grown in the presence of test compounds.

Data set [4] deals with S. marcescens. The description is as above. The data set is classed as cell-based, Serratia marcescens. As to conditions: 250 μM, 24 h treatment. The procedure:
as §1, §2

In data set [5] the test system is MRC-5 normal human lung fibroblasts. The data set is described as follows: Toxicity assay, Alamar blue, Example 1. The format is cell-based. As to conditions: for pIC50: Homo sapiens, MRC5, 72 h incubation, read-out: toxicity (IC50) against MRC-5 human fibroblast cells. The method, then: The normal human lung fibroblasts MRC-5 were cultured in minimal essential medium (MEM, Invitrogen) supplemented with 10% foetal calf serum (FCS), 1% L-glutamine-penicillin-streptomycin, 2% sodium bicarbonate, 1% non-essential amino acids (NEAA) and 1% sodium pyruvate. The cell line was maintained at 37° C. in 5% CO2 as an adherent monolayer and was passaged upon reaching confluence by standard cell culture techniques. MRC-5 cells were seeded at 2×10^4 cells per well in 96-well plates to ensure full confluence (quiescence). Cells were treated 24 h after seeding with 0.1 to 1000 μM of compounds. After 72 h drug incubation, the treated media was replaced with fresh media containing 10% Alamar blue and the cells were incubated for another 6 h. The metabolic activity was detected by spectrophotometric analysis by assessing the absorbance of Alamar blue as previously described by Pasquier et. al (see Pasquier, E.; Ciccolini, J.; Carre, M.; Giacometti, S.; Fanciullino, R.; Pouchy, C.; Montero, M.-P.; Serdjebi, C.; Kavallaris, M.; André, N. Oncotarget 2011, 2, 797).
Cell proliferation was determined and expressed as a percentage of untreated control cells. The determination of IC50 values was performed using GraphPad Prism 6 (San Diego, Calif., USA).
To further evaluate the utility of these novel guanylated peptidomimetics for medical applications, it was essential to determine their specificity towards bacterial cells over mammalian cells.

Data set [6] has as its system S. aureus. The data set is described as follows: Minimal inhibitory concentration (MIC) determination, Example 1. As to conditions: Staphylococcus aureus. The data set is classed as cell-based. The procedure: (§3) The antibacterial activity of the compounds was determined by the determination of minimal inhibitory concentration (MIC) by following the previously published protocol (see Nizalapur, S.; Ho, K. K.; Kimyon, Ö.; Yee, E.; Berry, T.; Manefield, M.; Cranfield, C. G.; Willcox, M.; Black, D. S.; Kumar, N. Org. Biomol. Chem. 2016, 14, 3623). The compounds to be tested were dissolved and diluted in autoclaved Millipore water. A single colony of bacteria was cultured overnight in TSB at 37° C. The resulting bacteria were collected by centrifugation and re-suspended in the same volume of MHB twice. Optical density (OD) of the resulting culture was adjusted to 0.1 at 600 nm (10^8 CFU/mL) in MHB, and the adjusted culture was further diluted to […] in MHB. Then, 100 μL of the bacterial solution was added to wells of a 96-well plate containing 100 μL of serially diluted compound. Two controls were also prepared: one containing 100 μL of MHB media and 100 μL sterile water, and the other containing 100 μL of bacterial solution and 100 μL sterile water. […] The MIC value was determined as the lowest concentration of compound that inhibited the complete growth of the bacteria (i.e. OD similar to that of the control having no bacteria). Each experiment was performed in triplicate and was repeated in three independent experiments.
(§4) The results of the MIC assay are given below in Table 1.

The subject of data set [7] is E. coli. The description is as above. The format is cell-based. The settings on record: 24 h, MHB, 37° C.; for MIC: Escherichia coli, read-out: Minimum inhibitory concentration (MIC) E. coli. The method, then:
as §3, §4

In data set [8] the test system is S. marcescens. The data set is described as follows: Biofilm inhibition assay (inhibition of biofilm formation), crystal violet staining. The format is cell-based. As to conditions: Serratia marcescens, 24 h. The procedure:
as §1, with “no-established” for “pre-established”, “along” for “prior to supplementation”, “water.” for “DMSO.”
as §2

In data set [9] the test system is S. aureus. The data set is described as follows: Biofilm disruption assay, established biofilms, crystal violet staining. The data set is classed as cell-based. The settings on record: 250 μM, 24 h treatment. The method, then:
as §1, §2

For data set [10], the system named is Pseudomonas aeruginosa (PAO1). The data set is described as above. The format is cell-based. The settings on record: 250 μM, 24 h treatment. The method, then:
as §1, §2

Where [11] appears, read: MHB, 37° C., 24 h, read-out: Minimum inhibitory concentration (MIC) S. aureus.
Setting [12] is: MIC in μM as compared with MRC-5 IC50, read-out: equivalent MIC values.

As for `CCCCCCCCS(=O)(=O)Nc1ccc(Br)cc1C(=O)C(=O)NCCCN(C)C` [Compound 24a, 2-(5-Bromo-2-(octylsulfonamido)phenyl)-N-(3-(dimethylamino)propyl)-2-oxoacetamide], in data set [1], the pIC50 (usually the IC50 on a negative log10 scale, so that one unit is a factor of ten) is 4.43. For the same molecule, the “toxicity to human cells” value in data set [1] (MRC-5) is “high level of toxicity to human cells”. For the same molecule, the tBLM conduction response result in [2] is on record as “showed conduction responses”. The molecule further yielded an MIC against S. aureus (SA38) of 47 µM (≈ 23.7 µg/mL).
Turning to `Cl.N=C(N)NCCCNC(=O)C(=O)c1cc(Br)ccc1NC(=O)c1ccc2ccccc2c1` [Compound 35, N-(4-Bromo-2-(2-((3-guanidinopropyl)amino)-2-oxoacetyl)phenyl)-2-naphthamide hydrochloride], the “disruption of established biofilms of E. coli” value in the data set on E. coli [3] worked out at 46%. Also, the “disruption of established biofilms of S. marcescens” value in the data set on S. marcescens [4] amounted to 49%. For the same molecule, in data set [5], the pIC50 is 3.76. In addition, the MIC was 6 µg/mL in the data set on S. aureus [6] (setting [11]), 12.5 µM in the data set on S. aureus [6] (setting [12]) and above 110 µg/mL with E. coli [7].
For the molecule `Cl.N=C(N)NCCCNC(=O)C(=O)c1cc(Cl)ccc1NC(=O)c1ccc2ccccc2c1` [Compound 36, N-(4-Chloro-2-(2-((3-guanidinopropyl)amino)-2-oxoacetyl)phenyl)-2-naphthamide hydrochloride], in the data set with E. coli [3], the “disruption of established biofilms of E. coli” value is given as 43%. Also, in data set [5], the pIC50 is 3.65. Further, the MIC in the data set on S. aureus [6] (setting [11]) is 8 µg/mL; in the data set on S. aureus [6] (setting [12]), 16 µM; in the data set with E. coli [7] it was above 110 µg/mL. In the data set on S. marcescens [8], the inhibition – broadly, the share of the control response that was lost under treatment – at 250 µM came to 71%.
Molecule `CCCCCCCCS(=O)(=O)Nc1ccc(Br)cc1C(=O)C(=O)NCCN(C)C.Cl` [Compound 38b, 2-(2-(5-Bromo-2-(octylsulfonamido)phenyl)-2-oxoacetamido)-N,N-dimethylethan-1-aminium chloride] had a negative logarithm of the IC50 (pIC50) in [1] of 4.12. The tBLM conduction response result in data set [2] was “showed conduction responses”. Further, the MIC against S. aureus (SA38) came to 63 µM.
For `CCCCCCCCS(=O)(=O)Nc1ccccc1C(=O)C(=O)NCCCNC(=N)N.Cl` [Compound 42d, N-(3-Guanidinopropyl)-2-(2-(octylsulfonamido)phenyl)-2-oxoacetamide hydrochloride], the pIC50 in [1] is 3.43. The tBLM conduction response result in data set [2] is “showed conduction responses”. Besides, the MIC with S. aureus (SA38) came out at 47 µM.
As for `Cl.N=C(N)NCCCC[C@H](NC(=O)C(=O)c1cc(F)ccc1NC(=O)c1ccc2ccccc2c1)C(=O)O` [Compound 53, N^2-(2-(2-(2-naphthamido)-5-fluorophenyl)-2-oxoacetyl)-N^6-carbamimidoyllysine hydrochloride], in the data set on S. aureus [9], the “disruption of established biofilms of S. aureus” value amounted to 46%. The “disruption of established biofilms of P. aeruginosa” value (“disruption … of P. aeruginosa” below) in [10] stood at 42%. In the data set on S. marcescens [4], the “disruption of established biofilms of S. marcescens” value stood at 40%. For the same molecule, the figures for the MIC in the data set with S. aureus [6] (setting [11]) and with E. coli [7] were 108 µg/mL and 67 µg/mL, respectively. In addition, in the data set on E. coli [7] (hydrochloride), the “Minimum inhibitory concentration (MIC) E. coli” value worked out at 68 µg/mL. For the same molecule, the inhibition at 250 µM in the data set on S. marcescens [8] was determined as 67%.
With `COC(=O)C(CCCN)NC(=O)C(CCCCN)NC(=O)C(=O)c1ccccc1NC(=O)c1ccc2ccccc2c1.Cl.Cl` (stereo not drawn) [Compound 61, Methyl2-(2-(2-(2-(2-naphthamido)phenyl)-2-oxoacetamido)-6-aminohexanamido)-5-aminopentanoate dihydrochloride], the “disruption of established biofilms of S. aureus” value in the data set on S. aureus [9] was determined as 53%. Also, the “disruption … of P. aeruginosa” value in data set [10] worked out at 55%. The figures for the MIC in the data set with S. aureus [6] (setting [11]) and in the data set on E. coli [7] were 130 µg/mL and 39 µg/mL, respectively.
On to `COC(=O)[C@H](CCCNC(=N)N)NC(=O)[C@H](CCCNC(=N)N)NC(=O)C(=O)c1cc(Br)ccc1NC(=O)c1ccc2ccccc2c1.Cl.Cl` [Compound 66, Methyl (2-(2-(2-naphthamido)-5-bromophenyl)-2-oxoacetyl)arginylargininate dihydrochloride], for which, in [10] (dihydrochloride), the “disruption … of P. aeruginosa” value was 54% and 55%. Also, the “toxicity (IC50) against MRC-5 human fibroblast cells” value in data set [5] (72 h incubation) is recorded as “not reaching a 50% reduction of cell viability at the highest tested dose”. The MIC turned out to be 10 µg/mL in the data set on S. aureus [6] (setting [11]), 15.7 µM with S. aureus [6] (setting [12]) and 50 µg/mL in the data set on E. coli [7]. In the data set on S. marcescens [8], this molecule showed an inhibition at 250 µM of 69%.
